Source: patent US20110237520A1, “Anticancer Compounds” (priority 2008, published 2011)
pEC50, pIC50: −log10 of the molar value. Read-outs that look alike come from different tables or passages of the source. Numbered stars: 1 amine (or outer) side, 2 acyl side, 3 side chain; on linkers, the order of the positions; unused ones are H or OH. Bridge positions count the residues as written; N and C are the ends. Square brackets hold non-standard residues; d marks the D form. Peptide text beside a SMILES is read from it. * marks the point of attachment. ξ: configuration not given here. dNle(3R-OH,4R,5-Me2) = CC(C)[C@@H](C)[C@@H](O[*:3])[C@@H](N[*:1])C(=O)[*:2]; γ4hArg(2R,3R-(OH)2) = N=C(N)NCCC[C@H](N[*:1])[C@@H](O)[C@@H](O)C(=O)[*:2]; Heptanoyl(3R-OH,2R,4R,6-Me3) = CC(C)C[C@@H](C)[C@@H](O)[C@@H](C)C(=O)*; X5 = CO[C@H](c1ccc(O)cc1)C(N[*:1])C(=O)C[C@H](CC(N)=O)C(=O)[*:2]; Gln(3S,4R-Me2) = C[C@H]([C@H](N)C(=O)O)[C@@H](C)C(N)=O; X1 = NC(=O)CC[C@H](N[*:1])[C@@H](O)[C@@H](O)C(=O)[*:2]; X7 = O=C(O)CC[C@H](N[*:1])[C@@H](O)[C@@H](O)C(=O)[*:2]; ξThr(3R)(O-yl) = C[C@@H](O[*:3])C(N[*:1])C(=O)[*:2]; X6 = CC[C@@H](C)C[C@@H](C)[C@@H](O)[C@@H](C)C(=O)*; X4 = C[C@H](C(N[*:1])C(=O)[*:2])[C@@H](C)C(N)=O; Asn(3S-OEt) = CCO[C@H](C(N)=O)[C@H](N)C(=O)O; dAsp(3S-OH) = N[C@@H](C(=O)O)[C@H](O)C(=O)O; ξGln(3,4-Me2) = CC(C(N)=O)C(C)C(N)C(=O)O; X3 = CC(O)C(N[*:1])C(O)C(O)C(=O)[*:2]; ξAsn(3ξ-OMe) = COC(C(N)=O)C(N)C(=O)O; d(aThr) = C[C@@H](O)[C@@H](N)C(=O)O; X2 = CC(C)CC(C)CC(C)C(O)C(C)C(=O)*; NMeQ = CN[CH](CCC(N)=O)C(=O)O; ξNle(4ξ-Me) = CCC(C)CC(N)C(=O)O; ξThr(3R) = C[C@@H](O)C(N)C(=O)O; dOrn = NCCC[C@@H](N)C(=O)O; Pip = O=C(O)[CH]1CCCCN1; Orn = NCCC[CH](N)C(=O)O; ξL = CC(C)CC(N)C(=O)O

Legend:
MDA-MB-231 = assay: SRB colorimetric cytotoxicity assay, MDA-MB-231; assay type: cell-based, human; conditions: MDA-MB-231, 72 hours treatment; for GI50: 50% cell growth inhibition; for TGI: total cell growth inhibition
Description: (§1) The aim of this assay is to evaluate the in vitro cytostatic (ability to delay or arrest tumor cell growth) or cytotoxic (ability to kill tumor cells) activity of the samples being tested.
(§2) A colorimetric assay, using sulforhodamine B (SRB) reaction has been adapted to provide a quantitative measurement of cell growth and viability (following the technique described by Skehan et al. J. Natl. Cancer Inst. 1990, 82, 1107-1112).
(§3) This form of assay employs SBS-standard 96-well cell culture microplates (Faircloth et al. Methods in Cell Science, 1988, 11(4), 201-205; Mosmann et al, Journal of Immunological Methods, 1983, 65(1-2), 55-63). All the cell lines used in this study were obtained from the American Type Culture Collection (ATCC) and derive from different types of human cancer.
(§4) Cells were maintained in Dulbecco's Modified Eagle Medium (DMEM) supplemented with 10% Fetal Bovine Serum (FBS), 2 mM L-glutamine, 100 U/mL penicillin and 100 U/mL streptomycin at 37° C., 5% CO2 and 98% humidity. For the experiments, cells were harvested from subconfluent cultures using trypsinization and resuspended in fresh medium before counting and plating.
(§5) Cells were seeded in 96 well microtiter plates, at 5×10^3 cells per well in aliquots of 150 μL, and allowed to attach to the plate surface for 18 hours (overnight) in drug free medium. After that, one control (untreated) plate of each cell line was fixed (as described below) and used for time zero reference value. Culture plates were then treated with test compounds (50 μL aliquots of 4× stock solutions in complete culture medium plus 4% DMSO) using ten serial dilutions (concentrations ranging from 10 to 0.00262 μg/mL) and triplicate cultures (1% final concentration of DMSO). After 72 hours treatment, the antitumor effect was measured by using the SRB methodology: Briefly, cells were washed twice with PBS, fixed for 15 min in 1% glutaraldehyde solution at room temperature, rinsed twice in PBS, and stained in 0.4% SRB solution for 30 min at room temperature. Cells were then rinsed several times with 1% acetic acid solution and air-dried at room temperature. SRB was then extracted in 10 mM trizma base solution and the absorbance measured in an automated spectrophotometric plate reader at 490 nm. Effects on cell growth and survival were estimated by applying the NCI algorithm (Boyd M R and Paull K D. Drug Dev. Res. 1995, 34, 91-104).
(§6) Using the mean±SD of triplicate cultures, a dose-response curve was automatically generated using nonlinear regression analysis. Three reference parameters were calculated (NCI algorithm) by automatic interpolation: GI50=compound concentration that produces 50% cell growth inhibition, as compared to control cultures; TGI=total cell growth inhibition (cytostatic effect), as compared to control cultures, and LC50=compound concentration that produces 50% net cell killing (cytotoxic effect).

HT29 = assay: SRB colorimetric cytotoxicity assay, HT29; assay type: cell-based, human; conditions: for GI50: 50% cell growth inhibition; for CC50: 50% net cell killing, read-out: LC50 (the source's name); for TGI: total cell growth inhibition
Description: as §1, §2, §3, §4, §5, §6

A549 = assay: SRB colorimetric cytotoxicity assay, A549; assay type: cell-based, human; conditions: A549, 72 hours treatment; for GI50: 50% cell growth inhibition; for CC50: 50% net cell killing, read-out: LC50 (the source's name); for TGI: total cell growth inhibition
Description: as §1, §2, §3, §4, §5, §6

HIV-1 = conditions: cell-based XTT assay; read-out: IC50, cytoprotective activity against HIV-1 infection; cited from earlier work
HIV-1RF [1] = conditions: human T-cell line CEM-SS infected with HIV-1RF, 6 day incubation; read-out: EC50, inhibition of the cytopathic effect of HIV-1 infection; cited from earlier work
HIV-1RF [2] = conditions: in vitro; cited from earlier work
[3] = test system: panel of human cancer cell lines; conditions: mean over a panel of human cancer cell lines; cited from earlier work
[4] = Homo sapiens, HT-29, HT29, 72 hours treatment

What does the source list for `CCO[C@H](C(N)=O)[C@@H]1NC(=O)[C@H](CCC(N)=O)N(C)C(=O)[C@H](CC(C)C)NC(=O)[C@@H](CCCCN)NC(=O)[C@@H]([C@@H](C)O)NC(=O)[C@H](NC(=O)[C@@H](NC(=O)[C@H](O)[C@H](O)[C@H](CCC(N)=O)NC(=O)[C@@H](CC(=O)O)NC(=O)[C@H](C)[C@H](O)[C@H](C)CC(C)C)[C@@H](C)[C@@H](C)C(N)=O)[C@@H]([C@H](C)C(C)C)OC(=O)[C@@H]2CCCCN2C(=O)[C@@H](CC(=O)O)NC1=O` [Pipecolidepsin A] ({Heptanoyl(3R-OH,2R,4R,6-Me3)}-[dD][X1][Gln(3S,4R-Me2)][dNle(3R-OH,4R,5-Me2)][d(aThr)][dK]L[NMeQ][Asn(3S-OEt)][dD][Pip]; ester 4-C)?
GI50 (MDA-MB-231): 725 nM; LC50 (50% net cell killing) (MDA-MB-231): 1750 nM; TGI (MDA-MB-231): 1.15E−06 Molar; GI50 (HT29; HT29, 72 hours treatment): 1150 nM; CC50 (HT29; HT29, 72 hours treatment): 1570 nM; TGI (HT29; HT29, 72 hours treatment): 1.33E−06 Molar; GI50 (A549): 604 nM; CC50 (A549): 1390 nM; TGI (A549): 9.06E−07 Molar

Which GI50 (MDA-MB-231) does the source give for `CCO[C@H](C(N)=O)[C@@H]1NC(=O)[C@H](CCC(N)=O)N(C)C(=O)[C@H](CC(C)C)NC(=O)[C@@H](CCCCN)NC(=O)[C@@H]([C@@H](C)O)NC(=O)[C@H](NC(=O)[C@@H](NC(=O)[C@H](O)[C@H](O)[C@H](CCC(N)=O)NC(=O)[C@H](NC(=O)[C@H](C)[C@H](O)[C@H](C)CC(C)C)[C@H](O)C(=O)O)[C@@H](C)[C@@H](C)C(N)=O)[C@@H]([C@H](C)C(C)C)OC(=O)[C@@H]2CCCCN2C(=O)[C@@H](CC(=O)O)NC1=O` [Pipecolidepsin B] ({Heptanoyl(3R-OH,2R,4R,6-Me3)}-[dAsp(3S-OH)][X1][Gln(3S,4R-Me2)][dNle(3R-OH,4R,5-Me2)][d(aThr)][dK]L[NMeQ][Asn(3S-OEt)][dD][Pip]; ester 4-C) here?
Its GI50 is 23.3 nM.

And the LC50 (50% net cell killing) (MDA-MB-231)?
Its LC50 (50% net cell killing) is 209 nM.

And the TGI (MDA-MB-231)?
Its TGI is 6.58E−08 Molar.

And the GI50 (HT29; HT29, 72 hours treatment)?
Its GI50 is 14.4 nM.

What about the CC50 (HT29; HT29, 72 hours treatment) of the same molecule?
Its CC50 is 65.8 nM.

And the TGI (HT29; HT29, 72 hours treatment)?
The TGI was 2.69E−08 Molar.

What about the GI50 (A549) of the same molecule?
Its GI50 is 35.3 nM.

And the CC50 (A549)?
The CC50 was 353 nM.

What about the TGI (A549) of the same molecule?
Its TGI is 1.08E−07 Molar.

With `CCC(C)CC1NC(=O)C(CCCN)NC(=O)C(C(C)O)NC(=O)C(NC(=O)C(NC(=O)C(O)C(O)C(NC(=O)CNC(=O)C(C)C(O)C(C)CC(C)CC(C)C)C(C)O)C(C)C(C)C(N)=O)C(C)OC(=O)C2CCCCN2C(=O)C(CC(N)=O)NC(=O)C(C(OC)C(N)=O)NC(=O)C(CCC(N)=O)N(C)C1=O` (centres unmarked) [Pipecolidepsin C] (X2-G[X3][ξGln(3,4-Me2)]TT[Orn][ξNle(4ξ-Me)][NMeQ][ξAsn(3ξ-OMe)]N[Pip]; ester 4-C; configuration not given here) as the molecule, how does the GI50 (MDA-MB-231; Homo sapiens) read?
Its GI50 is 480 nM.

And the LC50 (50% net cell killing) (MDA-MB-231; Homo sapiens)?
Its LC50 (50% net cell killing) is 907 nM.

What about the TGI (MDA-MB-231) of the same molecule?
Its TGI is 6.48E−07 Molar.

What about the TGI (HT29; HT29, 72 hours treatment) of the same molecule?
The TGI was 8.43E−07 Molar.

What about the GI50 (HT29; [4]) of the same molecule?
Its GI50 is 648 nM.

What about the CC50 (HT29; [4]) of the same molecule?
The CC50 was 1040 nM.

And the TGI (A549)?
The TGI was 5.25E−07 Molar.

What about the GI50 (A549; Homo sapiens) of the same molecule?
Its GI50 is 428 nM.

What about the CC50 (A549; Homo sapiens) of the same molecule?
The CC50 was 648 nM.

With `CC[C@@H](C)C[C@@H](C)[C@@H](O)[C@@H](C)C(=O)N[C@H](CCCN)C(=O)N[C@@H](CCC(=O)O)[C@@H](O)[C@@H](O)C(=O)N[C@H](C(=O)N[C@H]1C(=O)N[C@H](CO)C(=O)N[C@H](CCCN)C(=O)N[C@@H](CC(C)C)C(=O)N(C)[C@@H](CCC(N)=O)C(=O)N[C@@H]([C@@H](C)OC)C(=O)N[C@H](CC(=O)O)C(=O)N2CCCC[C@H]2C(=O)O[C@@H]1[C@H](C)C(C)C)[C@@H](C)[C@@H](C)C(N)=O` [homophymine A] (X6-[dOrn][X7][Gln(3S,4R-Me2)][dNle(3R-OH,4R,5-Me2)][dS][dOrn]L[NMeQ]T(Me)[dD][Pip]; ester 4-C) as the molecule, how does the pIC50 (HIV-1) read?
The pIC50 was 7.12.

With `CO[C@H](c1ccc(O)cc1)C1NC(=O)[C@H](CCC(N)=O)N(C)C(=O)C(CC(C)C)NC(=O)[C@@H](CCCNC(=N)N)NC(=O)C([C@@H](C)O)NC(=O)C(NC(=O)C(NC(=O)[C@H](O)[C@H](O)[C@H](CCCNC(=N)N)NC(=O)[C@H](CC(N)=O)NC(=O)[C@H](C)[C@H](O)[C@H](C)CC(C)C)[C@@H](C)[C@@H](C)C(N)=O)[C@@H](C)OC(=O)[C@@H]2CCCCN2C(=O)[C@@H](CC(N)=O)CC1=O` (stereo partly drawn) [neamphamide A] ({Heptanoyl(3R-OH,2R,4R,6-Me3)}-N[γ4hArg(2R,3R-(OH)2)][X4][ξThr(3R)(O-yl)][ξThr(3R)][dR][ξL][NMeQ][X5][Pip]; ester 4-C) as the molecule, how does the pEC50 (HIV-1RF [1]) read?
The pEC50 was 7.55.

For papuamide A, which “EC50, inhibition of infection of human T-lymphoblastoid cells by HIV-1RF” value (HIV-1RF [2]) is on record?
Its value is “approximately 4 ng/mL”.

And the “mean IC50, cytotoxicity” value [3]?
Its value is 0.075 µg/mL.

For papuamide B, which “EC50, inhibition of infection of human T-lymphoblastoid cells by HIV-1RF” value (HIV-1RF [2]) is on record?
Its value is “approximately 4 ng/mL”.
